In publication PMC12152147, “DDB1 engagement defines the selectivity of S656 analogs for cyclin K degradation over CDK inhibition” (EMBO Reports, 2025):
Where “and” joins values, the source holds several entries; their conditions need not be identical. Equal values may be shown once. Read-outs that look alike come from different tables or passages of the source.

How the values were obtained:
primary AML specimens = assay: Dose-response assays in primary AML specimens (6 days, CellTiterGlo); assay type: cell-based, human; conditions: 6 days, read-out: IC50
Summary of the method: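 Primary AML cells in IMDM/15% BIT with SCF, FLT3L, IL3, G-CSF, SR1 and UM729 were exposed to 8-point 1:4 dilutions (10 μM to 0.5 nM) for 6 days. Viability came from CellTiterGlo luminescence, with % inhibition versus DMSO (0.1%) fitted by nonlinear regression.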

OCI-AML5 cells = assay: Dose-response proliferative assay in OCI-AML5 (4 days, CellTiterGlo); assay type: cell-based, H. sapiens; conditions: OCI-AML5 cells; read-out: IC50 in AML5
Summary of the method: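 OCI-AML5 cells in αMEM, 10% heat-inactivated FBS plus 10 ng/mL GM-CSF, 300 cells/well, exposed to 8-point 1:4 serial dilutions (10 μM down to 0.5 nM). Viability read after 4 days in culture at 37 °C, 5% CO2.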

cyclin KeGFP = assay: Cyclin KeGFP reporter system (eGFP/mCherry MFI by flow cytometry);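 as to % degradation cyclin K-eGFP: 10 μM compound for 3 h relative to DMSO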; assay type: cell-based, H. sapiens
Summary of the method: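 OCI-AML5 clone G7 carrying lentiviral cyclin KeGFP/mCherry reporter. eGFP and mCherry geometric MFI measured by flow cytometry; eGFP/mCherry ratio normalized to DMSO-treated cells.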

CDK12/Cyclin K = biological target: T1, CDK12/Cyclin K (Homo sapiens, UniProt Q9NYV4); assay: CDK12/CyclinK in vitro kinase assay (BPS kit, Kinase Glo MAX); assay type: biochemical
T1 construct: purchased BPS Bioscience 78298
T1 sequence (Q9NYV4 whole entry): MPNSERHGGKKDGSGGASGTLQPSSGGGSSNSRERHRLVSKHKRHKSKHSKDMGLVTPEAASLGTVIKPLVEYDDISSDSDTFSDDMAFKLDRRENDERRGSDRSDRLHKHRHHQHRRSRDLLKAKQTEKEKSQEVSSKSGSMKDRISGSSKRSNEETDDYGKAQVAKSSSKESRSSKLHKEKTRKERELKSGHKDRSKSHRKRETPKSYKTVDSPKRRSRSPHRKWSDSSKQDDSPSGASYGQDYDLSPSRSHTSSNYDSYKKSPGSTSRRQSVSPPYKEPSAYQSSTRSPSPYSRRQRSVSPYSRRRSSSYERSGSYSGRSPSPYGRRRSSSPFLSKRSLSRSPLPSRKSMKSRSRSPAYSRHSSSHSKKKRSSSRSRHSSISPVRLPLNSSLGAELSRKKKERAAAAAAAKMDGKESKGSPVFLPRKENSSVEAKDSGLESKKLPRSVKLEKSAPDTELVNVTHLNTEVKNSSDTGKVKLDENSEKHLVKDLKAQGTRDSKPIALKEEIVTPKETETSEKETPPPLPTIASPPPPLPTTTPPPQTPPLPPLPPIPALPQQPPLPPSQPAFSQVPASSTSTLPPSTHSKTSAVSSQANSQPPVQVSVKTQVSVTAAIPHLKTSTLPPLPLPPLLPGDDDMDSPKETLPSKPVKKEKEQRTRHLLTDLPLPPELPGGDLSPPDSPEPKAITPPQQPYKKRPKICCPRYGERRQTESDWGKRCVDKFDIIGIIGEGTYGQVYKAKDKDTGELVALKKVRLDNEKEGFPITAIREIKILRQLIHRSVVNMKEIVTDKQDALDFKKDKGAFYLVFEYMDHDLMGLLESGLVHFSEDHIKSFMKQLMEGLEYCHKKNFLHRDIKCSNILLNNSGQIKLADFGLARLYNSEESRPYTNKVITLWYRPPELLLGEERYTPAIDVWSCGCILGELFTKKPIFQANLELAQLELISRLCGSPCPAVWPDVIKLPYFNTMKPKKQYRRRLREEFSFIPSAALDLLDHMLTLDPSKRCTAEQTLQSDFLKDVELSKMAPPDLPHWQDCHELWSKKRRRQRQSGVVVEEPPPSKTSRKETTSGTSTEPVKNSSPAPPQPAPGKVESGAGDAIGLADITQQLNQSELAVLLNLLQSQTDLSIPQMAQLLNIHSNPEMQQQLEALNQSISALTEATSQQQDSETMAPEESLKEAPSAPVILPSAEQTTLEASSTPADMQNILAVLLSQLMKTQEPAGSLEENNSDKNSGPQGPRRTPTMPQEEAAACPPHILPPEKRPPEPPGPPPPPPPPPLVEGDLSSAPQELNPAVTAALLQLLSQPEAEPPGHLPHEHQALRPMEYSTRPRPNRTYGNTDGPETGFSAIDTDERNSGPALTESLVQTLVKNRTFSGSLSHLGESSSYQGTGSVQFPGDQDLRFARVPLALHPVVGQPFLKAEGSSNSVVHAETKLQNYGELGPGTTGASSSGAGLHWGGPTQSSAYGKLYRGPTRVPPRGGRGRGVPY
T1 sequence (O75909 whole entry partner): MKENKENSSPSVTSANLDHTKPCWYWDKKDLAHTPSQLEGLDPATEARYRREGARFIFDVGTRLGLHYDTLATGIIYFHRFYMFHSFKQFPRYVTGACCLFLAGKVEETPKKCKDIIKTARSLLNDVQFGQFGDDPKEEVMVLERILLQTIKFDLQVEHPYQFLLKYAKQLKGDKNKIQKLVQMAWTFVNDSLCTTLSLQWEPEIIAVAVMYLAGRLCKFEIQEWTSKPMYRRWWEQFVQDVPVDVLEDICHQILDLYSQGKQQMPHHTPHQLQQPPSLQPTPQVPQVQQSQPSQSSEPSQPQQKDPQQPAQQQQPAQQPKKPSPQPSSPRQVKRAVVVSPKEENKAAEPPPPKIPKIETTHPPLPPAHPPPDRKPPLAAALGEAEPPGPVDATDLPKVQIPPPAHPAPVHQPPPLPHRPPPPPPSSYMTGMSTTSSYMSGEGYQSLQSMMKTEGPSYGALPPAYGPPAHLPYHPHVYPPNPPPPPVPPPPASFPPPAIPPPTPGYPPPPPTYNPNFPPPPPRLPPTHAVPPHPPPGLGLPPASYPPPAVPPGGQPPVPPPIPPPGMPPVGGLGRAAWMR
Experimental: (§1) Kinase activity was assessed using the kinase assay kits from BPS Bioscience for CDK1, CDK9 and CDK12 with Kinase Glo MAX in duplicates. Compounds were tested at a single concentration of 1 μM for CDK1 and CDK9 activity, and in a dilution ranging from 0.64 nM to 50 μM for CDK12 activity. Chemiluminescence was read using the Neo Synergy BioTek plate reader.

CDK1 = biological target: T2, CDK1 (Homo sapiens, UniProt P06493); assay: CDK1 in vitro kinase activity, single concentration 1 μM; assay type: biochemical; conditions: single concentration 1 μM
T2 construct: purchased BPS Bioscience 79597
T2 sequence (P06493 whole entry): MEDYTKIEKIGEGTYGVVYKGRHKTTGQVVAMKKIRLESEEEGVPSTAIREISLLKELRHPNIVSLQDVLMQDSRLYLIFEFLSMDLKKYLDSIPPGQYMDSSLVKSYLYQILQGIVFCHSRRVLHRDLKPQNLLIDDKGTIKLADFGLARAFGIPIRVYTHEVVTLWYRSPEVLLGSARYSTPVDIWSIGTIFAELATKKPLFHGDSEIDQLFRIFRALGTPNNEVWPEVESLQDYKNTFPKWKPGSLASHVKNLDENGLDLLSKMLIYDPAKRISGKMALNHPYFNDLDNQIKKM
T2 sequence (P14635 whole entry partner): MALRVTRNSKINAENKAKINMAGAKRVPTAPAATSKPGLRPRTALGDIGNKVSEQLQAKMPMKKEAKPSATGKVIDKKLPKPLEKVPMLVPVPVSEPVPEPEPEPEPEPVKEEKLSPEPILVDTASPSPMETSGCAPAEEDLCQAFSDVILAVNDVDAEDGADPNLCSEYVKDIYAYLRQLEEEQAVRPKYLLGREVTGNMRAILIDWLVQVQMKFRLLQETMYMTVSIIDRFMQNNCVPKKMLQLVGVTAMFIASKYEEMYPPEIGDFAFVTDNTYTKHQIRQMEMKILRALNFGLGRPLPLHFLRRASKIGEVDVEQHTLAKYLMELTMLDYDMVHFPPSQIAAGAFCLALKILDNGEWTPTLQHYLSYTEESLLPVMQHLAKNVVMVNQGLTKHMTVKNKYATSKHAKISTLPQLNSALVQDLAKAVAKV
Experimental: as §1

CDK9/CyclinT = biological target: T3, CDK9/CyclinT (Homo sapiens, UniProt P50750); assay: CDK9/CyclinT in vitro kinase activity, single concentration 1 μM; assay type: biochemical; conditions: single concentration 1 μM
T3 construct: purchased BPS Bioscience 79628
T3 sequence (P50750 whole entry): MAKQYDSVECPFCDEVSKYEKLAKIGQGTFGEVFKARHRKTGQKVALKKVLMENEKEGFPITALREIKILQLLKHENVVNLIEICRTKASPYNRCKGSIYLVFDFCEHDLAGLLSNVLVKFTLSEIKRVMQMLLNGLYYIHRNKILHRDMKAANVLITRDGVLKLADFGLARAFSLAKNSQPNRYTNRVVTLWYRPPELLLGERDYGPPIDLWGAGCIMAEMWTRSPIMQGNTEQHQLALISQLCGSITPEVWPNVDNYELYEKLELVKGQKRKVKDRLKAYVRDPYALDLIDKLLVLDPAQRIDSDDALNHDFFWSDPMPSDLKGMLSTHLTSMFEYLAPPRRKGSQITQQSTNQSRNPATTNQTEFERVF
T3 sequence (O60563 whole entry partner): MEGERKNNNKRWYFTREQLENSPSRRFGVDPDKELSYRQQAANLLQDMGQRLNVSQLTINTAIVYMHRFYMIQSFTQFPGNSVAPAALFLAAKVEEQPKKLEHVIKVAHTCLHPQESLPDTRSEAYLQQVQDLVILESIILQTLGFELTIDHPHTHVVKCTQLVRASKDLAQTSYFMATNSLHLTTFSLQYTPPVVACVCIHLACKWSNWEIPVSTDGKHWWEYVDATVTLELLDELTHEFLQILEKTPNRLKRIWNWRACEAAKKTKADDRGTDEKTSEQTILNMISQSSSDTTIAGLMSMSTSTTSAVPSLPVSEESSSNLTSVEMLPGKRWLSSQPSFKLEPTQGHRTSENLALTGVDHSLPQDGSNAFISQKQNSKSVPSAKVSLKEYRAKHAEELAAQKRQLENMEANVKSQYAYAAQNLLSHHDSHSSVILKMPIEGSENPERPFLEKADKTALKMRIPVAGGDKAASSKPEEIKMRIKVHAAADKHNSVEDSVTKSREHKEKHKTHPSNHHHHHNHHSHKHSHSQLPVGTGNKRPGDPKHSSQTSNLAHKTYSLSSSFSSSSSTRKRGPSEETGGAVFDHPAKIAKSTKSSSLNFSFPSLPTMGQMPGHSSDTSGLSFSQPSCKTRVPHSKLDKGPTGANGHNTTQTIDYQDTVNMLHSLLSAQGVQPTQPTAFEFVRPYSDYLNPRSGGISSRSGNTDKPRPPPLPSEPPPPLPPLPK
Experimental: as §1

[1] = system: OCI-AML5 cells expressing shRNAs targeting CDK1, 2, 4, 7, 9, cyclin K; assay: Dose response in OCI-AML5 expressing shRNAs targeting CDK1, 2, 4, 7, 9, cyclin K or control; assay type: cell-based, H. sapiens; conditions: for IC50: OCI-AML5, 4 days
[2] = system: OCI-AML5 cells expressing shRNA targeting CUL4A or CUL4B; assay: Dose response in OCI-AML5 expressing shRNAs targeting CUL4A, CUL4B or control; assay type: cell-based, H. sapiens; conditions: ratio of IC50 in shCUL4A vs shCTRL OCI-AML5 cells

## Cc1cccc(Nc2nc(CC(=O)Nc3ncc(C)s3)cs2)n1 [HQ461]
Primary AML specimens; primary AML specimen 03H109
  IC50: 883 nM
Primary AML specimens; primary AML specimen 04H055
  IC50: 2010 nM
Primary AML specimens; primary AML specimen 04H096
  IC50: 1220 nM
Primary AML specimens; primary AML specimen 04H138
  IC50: 2260 nM
Primary AML specimens; primary AML specimen 05H113
  IC50: 974 nM
Primary AML specimens; primary AML specimen 05H149
  IC50: 1170 nM
Primary AML specimens; primary AML specimen 05H193
  IC50: 1260 nM
Primary AML specimens; primary AML specimen 06H088
  IC50: 1320 nM
Primary AML specimens; primary AML specimen 06H117
  IC50: 1200 nM
Primary AML specimens; primary AML specimen 06H151
  IC50: 677 nM
Primary AML specimens; primary AML specimen 07H003
  IC50: 2350 nM
Primary AML specimens; primary AML specimen 07H131
  IC50: 2900 nM
Primary AML specimens; primary AML specimen 07H144
  IC50: 983 nM
Primary AML specimens; primary AML specimen 07H155
  IC50: 2460 nM
Primary AML specimens; primary AML specimen 08H018
  IC50: 2240 nM
Primary AML specimens; primary AML specimen 08H021
  IC50: 1030 nM
Primary AML specimens; primary AML specimen 08H056
  IC50: 2300 nM
Primary AML specimens; primary AML specimen 08H063
  IC50: 2420 nM
Primary AML specimens; primary AML specimen 08H085
  IC50: 1050 nM
Primary AML specimens; primary AML specimen 08H108
  IC50: 2180 nM
Primary AML specimens; primary AML specimen 08H118
  IC50: 873 nM
Primary AML specimens; primary AML specimen 09H016
  IC50: 869 nM
Primary AML specimens; primary AML specimen 09H070
  IC50: 2340 nM
Primary AML specimens; primary AML specimen 10H014
  IC50: 529 nM
Primary AML specimens; primary AML specimen 10H046
  IC50: 1050 nM
Primary AML specimens; primary AML specimen 10H107
  IC50: 1400 nM
Primary AML specimens; primary AML specimen 10H127
  IC50: 1920 nM
Primary AML specimens; primary AML specimen 10H161
  IC50: 1220 nM
Primary AML specimens; primary AML specimen 10H174
  IC50: 950 nM
Primary AML specimens; primary AML specimen 11H008
  IC50: 1540 nM
Primary AML specimens; primary AML specimen 11H019
  IC50: 1320 nM
Primary AML specimens; primary AML specimen 11H170
  IC50: 3060 nM
Primary AML specimens; primary AML specimen 11H217
  IC50: 1690 nM
Primary AML specimens; primary AML specimen 11H232
  IC50: 1460 nM
Primary AML specimens; primary AML specimen 12H033
  IC50: 2450 nM
Primary AML specimens; primary AML specimen 12H055
  IC50: 1470 nM
Primary AML specimens; primary AML specimen 12H148
  IC50: 1880 nM
Primary AML specimens; primary AML specimen 13H053
  IC50: 2280 nM
Primary AML specimens; primary AML specimen 15H045
  IC50: 931 nM
Primary AML specimens; primary AML specimen 17H065
  IC50: 1420 nM
OCI-AML5 cells
  IC50: 1070 nM
Cyclin KeGFP; OCI-AML5 G7 clone, 3 h, 10 μM, normalized to DMSO (=100)
  MFI of cyclin KeGFP over mCherry: 20.9 and 23.4 and 22.9 and 21.1 and 21.0
Cyclin KeGFP; cyclin K-eGFP reporter
  % degradation cyclin K-eGFP: 79%
CDK12/Cyclin K; Log10 (uM) 1.69897, in % (unit assumed)
  in vitro inhibition of CDK12/Cyclin K activity: 45.8 and 46.66 and 37.27
CDK12/Cyclin K; read-out: IC50, in vitro inhibition of CDK12/Cyclin K activity
  IC50: > 50 µM
CDK1
  % CDK1 inhibition: 0%
CDK9/CyclinT
  % CDK9 inhibition: 0%
[1]; read-out: IC50, sh CDK1
  IC50: 1500 nM and 2300 nM and 2010 nM
[1]; read-out: IC50, sh CDK2
  IC50: 1310 nM and 1750 nM and 2460 nM
[1]; read-out: IC50, sh CDK4
  IC50: 1240 nM and 1300 nM and 1980 nM
[1]; read-out: IC50, sh CDK7
  IC50: 1090 nM and 1800 nM and 1930 nM
[1]; read-out: IC50, sh CDK9
  IC50: 1110 nM and 1360 nM and 1320 nM
[1]; read-out: IC50, sh Cyclin K
  IC50: 429 nM and 562 nM and 546 nM
[1]; read-out: IC50, sh ctrl
  IC50: 1070 nM and 1220 nM and 1040 nM
[1]; class from shRNA IC50 profile and cyclin K-eGFP degradation
  Class: 1
[2]
  Ratio shCUL4A/shCTRL: 4.25
